Patent US8940739B2, “Compound of a reverse-turn mimetic and a production method and use therefor” (JW Pharmaceutical Corporation, priority 2010, dated 2015)

Test system: MV-4-11 (human, Acute Myeloid Leukemia cell line) cells
Test: Cell growth inhibition assay, GI50 of MV-4-11
Format: cell-based
Details: Homo sapiens, MV4-11, 72 h, MV-4-11 cells
Experimental: The anti-proliferative activity (cell growth inhibition assay) of the compounds according to the present invention against AML (Acute Myeloid Leukemia) cancer cells was measured. […] The lower the GI50 value, the higher the anti-proliferative activity.
A cell growth Inhibition assay was performed to investigate the rate of inhibition of cell proliferation by the compounds of the present invention. MV-4-11 (human, Acute Myeloid Leukemia cell line) cells were cultured in Iscove's modified Dulbecco's medium (IMDM) including 10% fetal bovine serum (FBS), 1× penicillin/streptomycin (10,000 units/ml Penicillin, […] Streptomycin in 0.85% NaCl). MV-4-11 cells were harvested with the IMDM and 5×10^4 cells/well were transferred to each well of 96-well culture plates (Nunc, #167008).
The compounds of Examples 1 to 5 were exposed to serial dilution and duplicated for each concentration. For the serial dilution, the compounds of the present invention were repeatedly diluted with the same volume of media onto 96-well assay block (costar, #3956). After the dilution, each compound was added to each well.
Also, the background absorbance was measured during the treatment with the test compounds by replacing the test compound with IMDM in the negative control plate. The plates were incubated for three days (72 hours) at 37 in the humidified incubator containing 5% CO2. On the last day, 20 µl of a CellTiter 96 Aqueous One Solution (Promega #G3581) was added to the culture in each well and the plates were incubated for a few hours at 37 in the humidified incubator containing 5% CO2. After the incubation, the absorbance of each cell was measured at 490 nm using an EnVision (Perkinelmer, USA).
The GI50 values were calculated using a Prism 3.0 program.

Row | Structure (SMILES) | GI50 [µM]
1 | C=CCN1CC(=O)N2[C@@H](Cc3ccc(O)cc3)C(=O)N(Cc3cccc4c(-c5ccc(C(=O)Nc6ccc(N7CCNCC7)cc6)cc5)cn(C)c34)C[C@@H]2N1C(=O)NCc1ccccc1 [Compound D-13] | 0.0012
2 | C=CCN1CC(=O)N2[C@@H](Cc3ccc(O)cc3)C(=O)N(Cc3cccc4c(C(=O)N5CCN(C(C)(C)C)CC5)cn(C)c34)C[C@@H]2N1C(=O)NCc1ccccc1 [Compound E-8] | 0.0089
3 | C=CCN1CC(=O)N2[C@@H](Cc3ccc(O)cc3)C(=O)N(Cc3cccc4c(C(=O)N5CCN(Cc6ccncc6)CC5)cn(C)c34)C[C@@H]2N1C(=O)NCc1ccccc1 [Compound E-30] | 0.0144
4 | C=CCN1CC(=O)N2[C@@H](Cc3ccc(O)cc3)C(=O)N(Cc3cccc4c(-c5ccc(C(=O)NOC(C)(C)C)cc5)cn(C)c34)C[C@@H]2N1C(=O)NCc1ccccc1 [Compound D-46] | 0.0034
5 | C=CCN1CC(=O)N2[C@@H](Cc3ccc(O)cc3)C(=O)N(Cc3cccc4c(-c5ccc(C(=O)NC)cc5)cn(C)c34)C[C@@H]2N1C(=O)NCc1ccccc1 [Compound D-8] | 0.0012
6 | C=CCN1CC(=O)N2[C@@H](Cc3ccc(O)cc3)C(=O)N(Cc3cccc4c(-c5ccc(NC(=O)NCC)nc5)cn(C)c34)C[C@@H]2N1C(=O)NCc1ccccc1 [Compound D-94] | 0.0015
7 | C=CCN1CC(=O)N2[C@@H](Cc3ccc(O)cc3)C(=O)N(Cc3cccc4c(-c5ccc(C(=O)NCCN(C)C)cc5)cn(C)c34)C[C@@H]2N1C(=O)NCc1ccccc1 [Compound D-39] | 0.0012
8 | C=CCN1CC(=O)N2[C@@H](Cc3ccc(O)cc3)C(=O)N(Cc3cccc4c(-c5ccc(NC(=O)N6CC(N7CCC(OC)CC7)C6)cc5)cn(C)c34)C[C@@H]2N1C(=O)NCc1ccccc1 [Compound D-66-1] | 0.0014
9 | C=CCN1CC(=O)N2[C@@H](Cc3ccc(O)cc3)C(=O)N(Cc3cccc4c(-c5cccc(C(=O)NC6CC6)c5)cn(C)c34)C[C@@H]2N1C(=O)NCc1ccccc1 [Compound D-29] | 0.0013
10 | C=CCN1CC(=O)N2[C@@H](Cc3ccc(O)cc3)C(=O)N(Cc3cccc4c(-c5ccc(NC(=O)c6ccc(-n7ccnc7)nc6)cc5)cn(C)c34)C[C@@H]2N1C(=O)NCc1ccccc1 [Compound D-68] | 0.0014
11 | C=CCN1CC(=O)N2[C@@H](Cc3ccc(O)cc3)C(=O)N(Cc3cccc4c(-c5ccc(NC(=O)N6CCN(C)CC6)nc5)cn(C)c34)C[C@@H]2N1C(=O)NCc1ccccc1 [Compound D-87] | 0.0013
12 | C=CCN1CC(=O)N2[C@@H](Cc3ccc(O)cc3)C(=O)N(Cc3cccc4c(C(=O)N5CCC(NC(=O)OC(C)(C)C)CC5)cn(C)c34)C[C@@H]2N1C(=O)NCc1ccccc1 [Compound E-56] | 0.0031
13 | C=CCN1CC(=O)N2[C@@H](Cc3ccc(O)cc3)C(=O)N(Cc3cccc4c(-c5cccc(C(=O)N6CCC(O)CC6)c5)cn(C)c34)C[C@@H]2N1C(=O)NCc1ccccc1 [Compound D-6] | 0.0017

Continued, values first:

Row | GI50 [µM] | Structure (SMILES)
14 | 0.0199 | C=CCN1CC(=O)N2C(CN(Cc3cccc4c(C(=O)Nc5ccc(N)nc5)cn(C)c34)C(=O)[C@@H]2Cc2ccc(O)cc2)N1C(=O)NCc1ccccc1 (some centres unmarked) [Compound G-9]
15 | 0.0105 | C=CCN1CC(=O)N2C(CN(Cc3cccc4c(C(=O)Nc5ccc(SC)cc5)cn(C)c34)C(=O)[C@@H]2Cc2ccc(O)cc2)N1C(=O)NCc1ccccc1 (some centres unmarked) [Compound G-7]
16 | 0.0114 | C=CCN1CC(=O)N2[C@@H](Cc3ccc(O)cc3)C(=O)N(Cc3cccc4c(C(=O)NCc5cccc(N6CCCC6)n5)cn(C)c34)C[C@@H]2N1C(=O)NCc1ccccc1 [Compound F-49]
17 | 0.0017 | C=CCN1CC(=O)N2[C@@H](Cc3ccc(O)cc3)C(=O)N(Cc3cccc4c(C(=O)N(C)Cc5cccc(C)n5)cn(C)c34)C[C@@H]2N1C(=O)NCc1ccccc1 [Compound F-45]

Target: cDNA-expressed human hepatic CYP3A4 (Homo sapiens (Human), UniProt P08684)
Sequence (P08684 whole entry): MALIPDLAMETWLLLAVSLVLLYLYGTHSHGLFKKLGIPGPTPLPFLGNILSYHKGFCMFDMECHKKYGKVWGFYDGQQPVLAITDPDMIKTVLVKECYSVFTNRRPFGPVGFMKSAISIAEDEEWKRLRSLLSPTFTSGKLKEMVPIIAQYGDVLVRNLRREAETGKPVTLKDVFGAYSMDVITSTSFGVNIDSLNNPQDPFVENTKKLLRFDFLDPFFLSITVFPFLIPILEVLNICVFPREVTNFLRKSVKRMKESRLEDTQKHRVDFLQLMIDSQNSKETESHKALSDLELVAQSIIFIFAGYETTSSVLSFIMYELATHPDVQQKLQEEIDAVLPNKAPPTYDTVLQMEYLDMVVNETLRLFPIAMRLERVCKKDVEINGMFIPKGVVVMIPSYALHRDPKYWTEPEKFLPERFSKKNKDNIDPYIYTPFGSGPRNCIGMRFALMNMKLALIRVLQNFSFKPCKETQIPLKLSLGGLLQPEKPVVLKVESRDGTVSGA
Test: Measurement of CYP (IC50 of P450 CYP3A4), BFC substrate
Format: in vitro ADME
Details: 20 minutes
Experimental: The compounds of the present invention had lower P450 CYP3A4 inhibitory activity (higher IC50). Lower CYP3A4 inhibitory activity means that the compounds of the present invention cause fewer side-effects from the pharmacological point of view.
This assay was performed in a 200 l volume in 96-well microtiter plates using cDNA-expressed human hepatic CYP3A4 (supersome, BD Gentest™ #456202). As a substrate for CYP3A4, 7-benzyloxy-4-trifluoromethyl-coumarin (BFC) was used. The compounds of Examples 1 to 5 and the substrate BFC were dissolved in 100% acetonitrile. The final volume of acetonitrile of the incubation mixture was less than 1% (volume/volume). A potassium phosphate buffer (pH 7.4, final concentration 0.1M), MgCl2 (final concentration 8.3 mM), EDTA (final concentration 1.67 mM), an inventive compound stock solution, CYP3A4 supersome, and NADPH (final concentration 0.25 mM) were added to each well. The reaction was initiated by adding the substrate (BFC, final concentration 30 µM) at 37. The incubation was performed for 20 minutes and then the reaction was terminated by the addition of 75 μl of acetonitrile: 0.5 M tris-base=4:1 (volume/volume).
Then, a fluorescent signal was measured using a fluorometer. A BFC metabolite, 7-hydroxy-4-trifluoromethyl-coumarin, was measured using an excitation wavelength of 409 nm and an emission wavelength of 530 nm.

Row | Structure (SMILES) | IC50 [µM]
18 | C=CCN1CC(=O)N2[C@@H](Cc3ccc(O)cc3)C(=O)N(Cc3cccc4c(C(=O)N5CCN(C6CCN(C)CC6)CC5)cn(C)c34)C[C@@H]2N1C(=O)NCc1ccccc1 [Compound E-64] | 8.55
19 | C=CCN1CC(=O)N2[C@@H](Cc3ccc(O)cc3)C(=O)N(Cc3cccc4c(C(=O)NN5CCN(c6ccccn6)CC5)cn(C)c34)C[C@@H]2N1C(=O)NCc1ccccc1 [Compound E-38] | 2.48
20 | C=CCN1CC(=O)N2[C@@H](Cc3ccc(O)cc3)C(=O)N(Cc3cccc4c(C(=O)N5CC6CCN(C)C6C5)cn(C)c34)C[C@@H]2N1C(=O)NCc1ccccc1 (some centres unmarked) [Compound E-68] | 2.45
21 | C=CCN1CC(=O)N2[C@@H](Cc3ccc(O)cc3)C(=O)N(Cc3cccc4c(C(=O)N5CCC(N(C)C)CC5)cn(C)c34)C[C@@H]2N1C(=O)NCc1ccccc1 [Compound E-61] | 2.23
22 | C=CCN1CC(=O)N2[C@@H](Cc3ccc(O)cc3)C(=O)N(Cc3cccc4c(C(=O)N5CCC(NC(=O)c6ccc(N7CCN(C)CC7)cc6)CC5)cn(C)c34)C[C@@H]2N1C(=O)NCc1ccccc1 [Compound E-60] | 6.02
23 | C=CCN1CC(=O)N2[C@@H](Cc3ccc(O)cc3)C(=O)N(Cc3cccc4c(C(=O)N5CCN(C(C)=O)CC5)cn(C)c34)C[C@@H]2N1C(=O)NCc1ccccc1 [Compound E-14] | 10.9
24 | C=CCN1CC(=O)N2[C@@H](Cc3ccc(O)cc3)C(=O)N(Cc3cccc4c(C(=O)N5CCN6CCN(C(C)=O)CC6C5)cn(C)c34)C[C@@H]2N1C(=O)NCc1ccccc1 (some centres unmarked) [Compound E-44] | 15
25 | C=CCN1CC(=O)N2[C@@H](Cc3ccc(O)cc3)C(=O)N(Cc3cccc4c(C(=O)N5CC(O)C5)cn(C)c34)C[C@@H]2N1C(=O)NCc1ccccc1 [Compound E-70] | 18.3
26 | C=CCN1CC(=O)N2[C@@H](Cc3ccc(O)cc3)C(=O)N(Cc3cccc4c(C(=O)N5CCCN(C)CC5)cn(C)c34)C[C@@H]2N1C(=O)NCc1ccccc1 [Compound E-42] | 3.63
27 | C=CCN1CC(=O)N2[C@@H](Cc3ccc(O)cc3)C(=O)N(Cc3cccc4c(C(=O)N5CCC(O)CC5)cn(C)c34)C[C@@H]2N1C(=O)NCc1ccccc1 [Compound E-51] | 10.7
28 | C=CCN1CC(=O)N2[C@@H](Cc3ccc(O)cc3)C(=O)N(Cc3cccc4c(-c5ccc(NC(=O)CCCNCCC(C)=O)cc5)cn(C)c34)C[C@@H]2N1C(=O)NCc1ccccc1 [Compound D-72] | 2.78

The remaining lines, values ahead:

Row | IC50 [µM] | Structure (SMILES)
29 | 2.48 | C=CCN1CC(=O)N2[C@@H](Cc3ccc(O)cc3)C(=O)N(Cc3cccc4c(C(=O)N(C)CCn5ccnc5C)cn(C)c34)C[C@@H]2N1C(=O)NCc1ccccc1 [Compound F-36]
30 | 6.15 | C=CCN1CC(=O)N2[C@@H](Cc3ccc(O)cc3)C(=O)N(Cc3cccc4c(C(=O)NNCC(=O)OCC)cn(C)c34)C[C@@H]2N1C(=O)NCc1ccccc1 [Compound F-55]
31 | 3.58 | C=CCN1CC(=O)N2[C@@H](Cc3ccc(O)cc3)C(=O)N(Cc3cccc4c(C(=O)NCCC(=O)OCC)cn(C)c34)C[C@@H]2N1C(=O)NCc1ccccc1 [Compound F-22]
32 | 4.53 | C=CCN1CC(=O)N2C(CN(Cc3cccc4c(C(=O)Nc5ccc(NCCN(CC)CC)nc5)cn(C)c34)C(=O)[C@@H]2Cc2ccc(O)cc2)N1C(=O)NCc1ccccc1 (some centres unmarked) [Compound G-24]
33 | 9.71 | C=CCN1CC(=O)N2[C@@H](Cc3ccc(O)cc3)C(=O)N(Cc3cccc4c(C(=O)NC5CCN(CCCO)CC5)cn(C)c34)C[C@@H]2N1C(=O)NCc1ccccc1 [Compound F-63]
34 | 2.97 | C=CCN1CC(=O)N2[C@@H](Cc3ccc(O)cc3)C(=O)N(Cc3cccc4c(C(=O)Nc5ccc(F)nc5)cn(C)c34)C[C@@H]2N1C(=O)NCc1ccccc1 [Compound G-1]
35 | 16.4 | C=CCN1CC(=O)N2[C@@H](Cc3ccc(O)cc3)C(=O)N(Cc3cccc4c(C(=O)NCCOCCO)cn(C)c34)C[C@@H]2N1C(=O)NCc1ccccc1 [Compound F-7]
36 | 6.87 | C=CCN1CC(=O)N2[C@@H](Cc3ccc(O)cc3)C(=O)N(Cc3cccc4c(C(=O)NC5CCN(C(=O)CCO)CC5)cn(C)c34)C[C@@H]2N1C(=O)NCc1ccccc1 [Compound F-65]
37 | 17.9 | C=CCN1CC(=O)N2[C@@H](Cc3ccc(O)cc3)C(=O)N(Cc3cccc4c(C(=O)NCCCN(C)C)cn(C)c34)C[C@@H]2N1C(=O)NCc1ccccc1 [Compound F-18]
38 | 2.39 | C=CCN1CC(=O)N2[C@@H](Cc3ccc(O)cc3)C(=O)N(Cc3cccc4c(C(=O)NN5CCN(C6CCCC6)CC5)cn(C)c34)C[C@@H]2N1C(=O)NCc1ccccc1 [Compound F-59]
